Legend:
[1] = Compound was tested for its ability to inhibit the urea facilitated transport in the urinary bladder of female frog after illumination, activity expressed as irreversibility of illumination.; assay type: functional
[2] = Compound was tested for its ability to inhibit the urea facilitated transport in the urinary bladder of female frog, activity expressed as percent inhibition.; assay type: functional
frog [3] = test: Concentration in urinary bladder of female frog.; assay type: functional, tissue-based
frog [4] = test: Concentration in urinary bladder of female frog; very low solubility; assay type: functional, tissue-based

Compound	Irreversibility [1]	Inhibition [2]	Concentration (frog [3])	Concentration (frog [4])
C/N=C(\S)Nc1nc2cc(N=[N+]=[N-])ccc2[nH]1	100%	29%	500 µM	
[N-]=[N+]=Nc1ccc(/N=C(/N)S)cc1	100%	25%	500 µM	
C/N=C(\S)Nc1ccc(Cl)c(N=[N+]=[N-])c1	100%	50%	31.6 µM	
[N-]=[N+]=Nc1cc(/N=C(/N)S)ccc1Cl	100%	50%	60.3 µM	
[N-]=[N+]=Nc1ccc(NC(=S)Nc2ccc(Cl)c(Cl)c2)cc1				very low solubility
